From patent US5217877A, “Process for the preparation of α-glucosidase inhibitor, pradimicin Q” (Bristol-Myers Squibb Company, priority 1991, dated 1993)
Converted amounts (≈) assume the structure as drawn.

Columns and labels:
[1] = biological target: T1, α-glucosidase (Sigma G-5003) (Saccharomyces cerevisiae, UniProt P53341); experiment: α-Glucosidase inhibitory activity (p-nitrophenyl-α-D-glucopyranoside hydrolysis); format: biochemical; conditions: for IC50 / IC50 (α-glucosidase inhibitory activity): 37° C., 15 minutes, pH 6.8, 0.7 mM p-nitrophenyl-α-D-glucopyranoside
T1 construct: purchased Sigma G-5003
Protocol: Forty μl of α-glucosidase (Sigma G-5003, #11 U/mg protein) (0.1 mg/ml in 100 mM phosphate buffer, pH 6.8=[…]) for tests (or the buffer for the control), 950 μl of 0.7 mM p-nitrophenyl-α-D-glucopyranoside (Sigma N1377), and 10 μl of the assay compound (various concentrations dissolved in DMSO) were mixed and incubated at 37° C. for 15 minutes. To the reaction mixture, 1.0 ml of 0.2N NaOH and then 1.0 ml of n-butanol were added and voltex-mixed. […] IC50 was determined from a standard curve of p-nitrophenol released when the assay was run without the test compound (0% inhibition) and when the assay was run without the enzyme (100% inhibition).

mouse melanoma B16 cells = experiment: cells; conditions: B16, read-out: cytotoxic activity IC50

T1 sequence (P53341 whole entry): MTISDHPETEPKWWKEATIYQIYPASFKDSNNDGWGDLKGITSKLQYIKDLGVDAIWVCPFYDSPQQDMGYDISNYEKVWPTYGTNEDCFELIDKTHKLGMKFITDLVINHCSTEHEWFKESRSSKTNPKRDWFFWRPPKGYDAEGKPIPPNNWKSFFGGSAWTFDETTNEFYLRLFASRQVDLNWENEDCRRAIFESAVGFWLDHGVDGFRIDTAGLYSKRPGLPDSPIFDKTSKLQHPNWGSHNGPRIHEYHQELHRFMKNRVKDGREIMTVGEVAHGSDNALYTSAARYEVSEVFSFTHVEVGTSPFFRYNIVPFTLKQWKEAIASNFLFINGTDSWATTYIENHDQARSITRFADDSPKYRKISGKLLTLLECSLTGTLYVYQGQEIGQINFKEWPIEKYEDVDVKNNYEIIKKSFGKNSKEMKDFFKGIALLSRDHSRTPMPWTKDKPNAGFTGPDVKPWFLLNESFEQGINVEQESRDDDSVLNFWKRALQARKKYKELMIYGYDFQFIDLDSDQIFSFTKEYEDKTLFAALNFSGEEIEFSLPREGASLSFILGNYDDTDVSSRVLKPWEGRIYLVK

Row | SMILES | IC50 [1] | α-glucosidase inhibitory activity (in words) [1] | IC50 (α-glucosidase inhibitory activity) [1] | IC50 (mouse melanoma B16 cells)
1 | COc1cc(O)c2c(c1)C(=O)c1c(O)c3c(c(OC)c1C2=O)C(O)C(O)c1cc(C)c(C(=O)NC(C)C(=O)O)c(O)c1-3 (stereo not drawn) [Benanomicin C, benanomicin C] | 107 µM | – | – | –
2 | COc1cc(O)c2c(c1)C(=O)c1c(cc3c(c1O)-c1c(cc(C)c(C(=O)N[C@H](CO)C(=O)O)c1O)[C@H](O[C@@H]1O[C@H](C)[C@H](N(C)C)[C@H](O[C@@H]4OC[C@@H](O)[C@H](O)[C@H]4O)[C@H]1O)[C@H]3O)C2=O [N,N-dimethylpradimicin FA-2] | – | no α-glucosidase inhibitory activity | > 100 µg/mL | –
3 | CN[C@@H]1[C@H](O[C@@H]2O[C@H](CO)[C@H](O)[C@H](O)[C@@H]2O)[C@@H](O)[C@H](O[C@@H]2c3cc(C)c(C(=O)N[C@H](C)C(=O)O)c(O)c3-c3c(cc4c(c3O)C(=O)c3cc(OC)cc(O)c3C4=O)[C@@H]2O)O[C@H]1C [Pradimicin L] | – | no α-glucosidase inhibitory activity | > 100 µg/mL | –
4 | Cc1cc2c(c(O)c1C(=O)O)-c1c(O)c3c(c(O)c1CC2O)C(=O)c1c(O)cc(O)cc1C3=O (stereo not drawn) [Pradimicin Q, pradimicin Q] | 6.46 µM | – | – | 75 µg/mL (≈ 162 µM)
5 | CNC1C(C)OC(OC2c3cc(C)c(C(=O)NC(C)C(=O)O)c(O)c3-c3c(cc4c(c3O)C(=O)c3cc(OC)cc(O)c3C4=O)C2O)C(O)C1OC1OCC(O)C(O)C1O (stereo not drawn) [Pradimicin A] | > 119 µM | no α-glucosidase inhibitory activity | – | –
